Data reported in patent publication US12060347B2 (BRISTOL-MYERS SQUIBB COMPANY, priority 2016, dated 2024).

The molecules below were run against T1, human PAR4 (Homo sapiens, UniProt Q96RI0) (assay: PAR4 FLIPR assay: antagonism of agonist-peptide-induced calcium mobilization in PAR4-expressing HEK293 cells). Details: H-Ala-Phe(4-F)-[…]NH2-induced intracellular calcium mobilization, 11-point curves.
T1 construct: expressed in transfected cells; host or cells: HEK293 PAR4 Clone 1.2A (BMS Arctic ID 383940)
T1 sequence (Q96RI0 18-385): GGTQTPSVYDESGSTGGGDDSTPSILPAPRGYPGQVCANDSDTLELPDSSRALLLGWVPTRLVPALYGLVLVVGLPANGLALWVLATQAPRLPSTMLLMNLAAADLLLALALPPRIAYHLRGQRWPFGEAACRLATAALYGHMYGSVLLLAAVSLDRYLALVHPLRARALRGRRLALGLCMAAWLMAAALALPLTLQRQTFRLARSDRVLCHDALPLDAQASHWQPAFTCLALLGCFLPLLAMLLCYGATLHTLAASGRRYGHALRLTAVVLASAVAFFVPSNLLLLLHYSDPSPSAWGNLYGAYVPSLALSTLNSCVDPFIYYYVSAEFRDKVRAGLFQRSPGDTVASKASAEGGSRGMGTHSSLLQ
Assay type: cell-based

Row | SMILES | IC50
1 | COc1cnc2c(-c3nc4cc(F)c(O[C@@H](C)[C@@H](C)OC(=O)Nc5ccc6[nH]c(=O)oc6c5)cc4s3)cc(C)cc2n1 [Example 406, (2R,3S)-3-((5-fluoro-2-(2-methoxy-7-methylquinoxalin-5-yl)benzo[d]thiazol-6-yl)oxy)butan-2-yl (2-oxo-2,3-dihydrobenzo[d]oxazol-6-yl)carbamate] | 3.5 nM
2 | COc1cnc2c(-c3nc4cc(F)c(O[C@@H](C)[C@@H](C)OC(=O)Nc5cnc(OC)nc5)cc4s3)cc(C)cc2n1 [Example 407, (2R,3S)-3-((5-fluoro-2-(2-methoxy-7-methylquinoxalin-5-yl)benzo[d]thiazol-6-yl)oxy)butan-2-yl (2-methoxypyrimidin-5-yl)carbamate] | 0.9 nM
3 | COc1cnc2c(-c3nc4cc(F)c(OC[C@@H](C)OC(=O)Nc5cnc(OC)nc5)cc4s3)cc(C)cc2n1 [Example 408, (R)-1-((5-fluoro-2-(2-methoxy-7-methylquinoxalin-5-yl)benzo[d]thiazol-6-yl)oxy)propan-2-yl (2-methoxypyrimidin-5-yl)carbamate] | 3.2 nM
4 | COc1cnc2c(-c3nc4cc(F)c(OC[C@@H](C)OC(=O)Nc5cncnc5)cc4s3)cc(C)cc2n1 [Example 409, (R)-1-((5-fluoro-2-(2-methoxy-7-methylquinoxalin-5-yl)benzo[d]thiazol-6-yl)oxy)propan-2-yl pyrimidin-5-ylcarbamate] | 0.4 nM
5 | COc1cnc2c(-c3nc4cc(F)c(O[C@@H](C)[C@@H](C)OC(=O)Nc5cncnc5)cc4s3)cc(C)cc2n1 [Example 410, (2R,3S)-3-((5-fluoro-2-(2-methoxy-7-methylquinoxalin-5-yl)benzo[d]thiazol-6-yl)oxy)butan-2-yl pyrimidin-5-ylcarbamate] | 0.3 nM
6 | COc1cnc2c(-c3nc4cc(F)c(OC[C@@H](C)OC(=O)Nc5ccccc5)cc4s3)cc(C)cc2n1 [Example 411, (R)-1-((5-fluoro-2-(2-methoxy-7-methylquinoxalin-5-yl)benzo[d]thiazol-6-yl)oxy)propan-2-yl phenylcarbamate] | 4.4 nM
7 | COc1cc(NC(=O)O[C@H](C)[C@H](C)Oc2cc3sc(-c4cc(C)cc5nc(OC)cnc45)nc3cc2F)ccn1 [Example 412, (2R,3S)-3-((5-fluoro-2-(2-methoxy-7-methylquinoxalin-5-yl)benzo[d]thiazol-6-yl)oxy)butan-2-yl (2-methoxypyridin-4-yl)carbamate] | 0.3 nM
8 | COc1cnc2c(-c3nc4cc(F)c(O[C@@H](C)[C@@H](C)OC(=O)Nc5ccnnc5)cc4s3)cc(C)cc2n1 [Example 413, (2R,3S)-3-((5-fluoro-2-(2-methoxy-7-methylquinoxalin-5-yl)benzo[d]thiazol-6-yl)oxy)butan-2-yl pyridazin-4-ylcarbamate] | 3.4 nM
9 | CCCc1ncc(NC(=O)O[C@H](C)[C@H](C)Oc2cc3sc(-c4cc(C)cc5nc(OC)cnc45)nc3cc2F)cn1 [Example 414, (2R,3S)-3-((5-fluoro-2-(2-methoxy-7-methylquinoxalin-5-yl)benzo[d]thiazol-6-yl)oxy)butan-2-yl (2-propylpyrimidin-5-yl)carbamate] | 7 nM
10 | COc1cnc2c(-c3nc4cc(F)c(O[C@@H](C)[C@@H](C)OC(=O)Nc5cnc(C(F)(F)F)nc5)cc4s3)cc(C)cc2n1 [Example 415, (2R,3S)-3-((5-fluoro-2-(2-methoxy-7-methylquinoxalin-5-yl)benzo[d]thiazol-6-yl)oxy)butan-2-yl (2-(trifluoromethyl)pyrimidin-5-yl)carbamate] | 3.1 nM
11 | COc1cnc2c(-c3nc4cc(F)c(O[C@@H](C)[C@@H](C)OC(=O)Nc5ccc(C)nn5)cc4s3)cc(C)cc2n1 [Example 416, (2R,3S)-3-((5-fluoro-2-(2-methoxy-7-methylquinoxalin-5-yl)benzo[d]thiazol-6-yl)oxy)butan-2-yl (6-methylpyridazin-3-yl)carbamate] | 32 nM
12 | COc1cnc2c(-c3nc4cc(F)c(O[C@@H](C)[C@@H](C)OC(=O)Nc5cnc(C)cn5)cc4s3)cc(C)cc2n1 [Example 417, (2R,3S)-3-((5-fluoro-2-(2-methoxy-7-methylquinoxalin-5-yl)benzo[d]thiazol-6-yl)oxy)butan-2-yl (5-methylpyrazin-2-yl)carbamate] | 11 nM
13 | COc1cnc2c(-c3nc4cc(F)c(O[C@@H](C)[C@@H](C)OC(=O)Nc5cnnc(C)c5)cc4s3)cc(C)cc2n1 [Example 418, (2R,3S)-3-((5-fluoro-2-(2-methoxy-7-methylquinoxalin-5-yl)benzo[d]thiazol-6-yl)oxy)butan-2-yl (6-methylpyridazin-4-yl)carbamate] | 1.3 nM
14 | COc1cnc2c(-c3nc4cc(F)c(O[C@@H](C)[C@@H](C)OC(=O)Nc5cncc(C)c5)cc4s3)cc(C)cc2n1 [Example 419, (2R,3S)-3-((5-fluoro-2-(2-methoxy-7-methylquinoxalin-5-yl)benzo[d]thiazol-6-yl)oxy)butan-2-yl (5-methylpyridin-3-yl)carbamate] | 2 nM
15 | COc1cncc(NC(=O)O[C@H](C)[C@H](C)Oc2cc3sc(-c4cc(C)cc5nc(OC)cnc45)nc3cc2F)c1 [Example 420, (2R,3S)-3-((5-fluoro-2-(2-methoxy-7-methylquinoxalin-5-yl)benzo[d]thiazol-6-yl)oxy)butan-2-yl (5-methoxypyridin-3-yl)carbamate] | 2.2 nM
16 | COc1cnc2c(-c3nc4cc(F)c(O[C@@H](C)[C@@H](C)OC(=O)Nc5cncc(C#N)c5)cc4s3)cc(C)cc2n1 [Example 421, (2R,3S)-3-((5-fluoro-2-(2-methoxy-7-methylquinoxalin-5-yl)benzo[d]thiazol-6-yl)oxy)butan-2-yl (5-cyanopyridin-3-yl)carbamate] | 1.8 nM
17 | COc1cnc2c(-c3nc4cc(F)c(O[C@@H](C)[C@@H](C)OC(=O)Nc5cnc(OC)c(C)c5)cc4s3)cc(C)cc2n1 [Example 422, (2R,3S)-3-((5-fluoro-2-(2-methoxy-7-methylquinoxalin-5-yl)benzo[d]thiazol-6-yl)oxy)butan-2-yl (6-methoxy-5-methylpyridin-3-yl)carbamate] | 2.2 nM
18 | COc1cnc2c(-c3nc4cc(F)c(O[C@@H](C)[C@@H](C)OC(=O)Nc5cccnc5)cc4s3)cc(C)cc2n1 [Example 423, (2R,3S)-3-((5-fluoro-2-(2-methoxy-7-methylquinoxalin-5-yl)benzo[d]thiazol-6-yl)oxy)butan-2-yl pyridin-3-ylcarbamate] | 4.2 nM
19 | COc1cnc2c(-c3nc4cc(F)c(O[C@@H](C)[C@@H](C)OC(=O)Nc5ccc(C(=O)N6CCOCC6)nc5)cc4s3)cc(C)cc2n1 [Example 426, (2R,3S)-3-((5-fluoro-2-(2-methoxy-7-methylquinoxalin-5-yl)benzo[d]thiazol-6-yl)oxy)butan-2-yl (6-(morpholine-4-carbonyl)pyridin-3-yl)carbamate] | 5.4 nM
20 | COc1cnc2c(-c3nc4c(Cl)c(F)c(OC[C@@H](C)OC(=O)Nc5ccnc(C(N)=O)c5)cc4s3)cc(C)cc2n1 [Example 427, (R)-1-((4-chloro-5-fluoro-2-(2-methoxy-7-methylquinoxalin-5-yl)benzo[d]thiazol-6-yl)oxy)propan-2-yl (2-carbamoylpyridin-4-yl)carbamate] | 7.6 nM
21 | CNC(=O)c1cc(NC(=O)O[C@H](C)COc2cc3sc(-c4cc(C)cc5nc(OC)cnc45)nc3c(Cl)c2F)ccn1 [Example 428, (R)-1-((4-chloro-5-fluoro-2-(2-methoxy-7-methylquinoxalin-5-yl)benzo[d]thiazol-6-yl)oxy)propan-2-yl (2-(methyl carbamoyl)pyridin-4-yl)carbamate] | 5.9 nM
22 | COc1cnc2c(-c3nc4cc(F)c(OC[C@@H](C)OC(=O)Nc5cnc(C(N)=O)nc5)cc4s3)cc(C)cc2n1 [Example 429, (R)-1-((5-fluoro-2-(2-methoxy-7-methylquinoxalin-5-yl)benzo[d]thiazol-6-yl)oxy)propan-2-yl (2-carbamoylpyrimidin-5-yl)carbamate] | 0.5 nM
23 | CNC(=O)c1ncc(NC(=O)O[C@H](C)COc2cc3sc(-c4cc(C)cc5nc(OC)cnc45)nc3cc2F)cn1 [Example 430, (R)-1-((5-fluoro-2-(2-methoxy-7-methylquinoxalin-5-yl)benzo[d]thiazol-6-yl)oxy)propan-2-yl (2-(methylcarbamoyl)pyrimidin-5-yl)carbamate] | 0.9 nM
24 | COc1cnc2c(-c3nc4cc(F)c(OC[C@@H](C)OC(=O)Nc5cnc(C(=O)N(C)C)nc5)cc4s3)cc(C)cc2n1 [Example 431, (R)-1-((5-fluoro-2-(2-methoxy-7-methylquinoxalin-5-yl)benzo[d]thiazol-6-yl)oxy)propan-2-yl (2-(dimethylcarbamoyl)pyrimidin-5-yl)carbamate] | 1.1 nM
25 | CNC(=O)c1ccc(NC(=O)O[C@H](C)COc2cc3sc(-c4cc(C)cc5nc(OC)cnc45)nc3cc2F)cn1 [Example 432, (R)-1-((5-fluoro-2-(2-methoxy-7-methylquinoxalin-5-yl)benzo[d]thiazol-6-yl)oxy)propan-2-yl (6-(methylcarbamoyl)pyridin-3-yl)carbamate] | 0.4 nM
26 | COc1cnc2c(-c3nc4cc(F)c(OC[C@@H](C)OC(=O)Nc5ccc(C(N)=O)nc5)cc4s3)cc(C)cc2n1 [Example 433, (R)-1-((5-fluoro-2-(2-methoxy-7-methylquinoxalin-5-yl)benzo[d]thiazol-6-yl)oxy)propan-2-yl (6-carbamoylpyridin-3-yl)carbamate] | 0.6 nM
27 | COc1cnc2c(-c3nc4cc(F)c(OC[C@@H](C)OC(=O)Nc5ccc(C(N)=O)nc5)cc4s3)cc(C)cc2n1 [Example 434, (R)-1-((5-fluoro-2-(2-methoxy-7-methylquinoxalin-5-yl)benzo[d]thiazol-6-yl)oxy)propan-2-yl (6-carbamoylpyridin-3-yl)carbamate] | 1.4 nM
